{"source": "patent US20090118202A1", "about": "“COMPOSITIONS AND METHODS OF TREATING HYPERTENSION WITH TANNIN COMPLEXES” (Texas Tech University, priority 2007, published 2009)", "key": {"[1]": {"test_system": "AT1 receptor", "experiment": "AT1 specific AngII binding in WB cells exposed to tannic acid", "format": "cell-based, rat", "conditions": "pretreatment of cells with the inhibitor", "protocol": "The present invention provides the use of hydrolysable tannic acids to affect angiotensin type 1 (AT1) receptor expression. The present invention used WB (i.e., a continuously passaged rat liver epithelial cell line) which expresses the native AT1 receptor. Under normal culture conditions, cells were exposed to tannic acid and changes in receptor expression and signaling intermediates were determined.\nFIG. 3A is an image of a plot illustrating the effects of tannic acid on native AT1, rat liver cells were exposed to tannic acid at indicated concentration for 20 hours."}, "[2]": {"test_system": "MAP-kinases p42 and p44", "experiment": "MAP-kinase phosphorylation in rat liver cells exposed to tannic acid (Western blot)", "format": "cell-based", "conditions": "pretreatment of cells with the inhibitor", "protocol": "FIGS. 6A-6C are images of a Western blot illustrating rat liver cells exposed to tannic acid in the presence or absence of the MAP-Kinase specific cell permeable inhibitor PD 98059 for 20 hours and total cell extracts were prepared. Equal amount of proteins were resolved by 8% polyacrylamide gel electrophoresis and immunoblotted with phospho-specific MAP-Kinase antibody in FIG. 6A, anti-MAP-kinase antibody in FIG. 6B, AT1 specific antibody in FIG. 6C top or anti-beta-actin antibody in FIG. 6C bottom. Immunoreactive bands were visualized using a chemiluminescence Western blotting system according to the manufacturer's instruction. In each plate protein concentration was determined using Bio-Rad protein assay reagent."}}}
{"smiles": "COc1cccc(-c2cc(=O)c3ccccc3o2)c1N", "note": "[MAP kinase specific inhibitor, PD98059]", "values": [{"measurement": "prevention of tannic acid induced down regulation of the AT1 receptor", "setting": "[1]", "value": "ineffective"}, {"measurement": "prevention of tannic acid induced MAP-kinases phosphorylation", "setting": "[2]", "value": "ineffective"}]}
